Laboratory results reported in PubChem BioAssay (NCI).
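96-well plates; 48 h exposure; 5 concentrations. Endpoints by linear interpolation between flanking doses. Not reached: highest tested concentration assigned. GI50 = concentration required for 50% inhibition of growth. TGI: concentration producing complete growth inhibition.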

Experiments:
Assay in all cases: NCI-60 cell line screen, 48 h
786-0 renal = system: 786-0 renal
A498 renal = system: A498 renal
ACHN renal = system: ACHN renal
CAKI-1 renal = system: CAKI-1 renal
CCRF-CEM leukemia = system: CCRF-CEM leukemia
COLO 205 colon = system: COLO 205 colon
DU-145 prostate = system: DU-145 prostate
EKVX NSCLC = system: EKVX NSCLC
HCC-2998 colon = system: HCC-2998 colon
HCT-116 colon = system: HCT-116 colon
HCT-15 colon = system: HCT-15 colon
HL-60(TB) leukemia = system: HL-60(TB) leukemia
HOP-62 NSCLC = system: HOP-62 NSCLC
HOP-92 NSCLC = system: HOP-92 NSCLC
HS 578T breast = system: HS 578T breast
HT29 colon = system: HT29 colon
IGROV1 ovarian = system: IGROV1 ovarian
K-562 leukemia = system: K-562 leukemia
KM12 colon = system: KM12 colon
LOX IMVI melanoma = system: LOX IMVI melanoma
M14 melanoma = system: M14 melanoma
MCF7 breast = system: MCF7 breast
MDA-MB-231 breast = system: MDA-MB-231 breast
MDA-MB-435 = system: MDA-MB-435
MOLT-4 leukemia = system: MOLT-4 leukemia
NCI-H226 lung = system: NCI-H226 lung
NCI-H23 lung = system: NCI-H23 lung
NCI-H460 lung = system: NCI-H460 lung
NCI/ADR-RES ovarian = system: NCI/ADR-RES ovarian
OVCAR-4 ovarian = system: OVCAR-4 ovarian
OVCAR-8 ovarian = system: OVCAR-8 ovarian
PC-3 prostate = system: PC-3 prostate
RPMI-8226 leukemia = system: RPMI-8226 leukemia
RXF 393 renal = system: RXF 393 renal
SF-268 CNS = system: SF-268 CNS
SF-295 CNS = system: SF-295 CNS
SF-539 CNS = system: SF-539 CNS
SK-MEL-2 melanoma = system: SK-MEL-2 melanoma
SK-MEL-28 melanoma = system: SK-MEL-28 melanoma
SK-MEL-5 melanoma = system: SK-MEL-5 melanoma
SK-OV-3 ovarian = system: SK-OV-3 ovarian
SNB-19 CNS = system: SNB-19 CNS
SNB-75 CNS = system: SNB-75 CNS
SW-620 colon = system: SW-620 colon
T-47D breast = system: T-47D breast
TK-10 renal = system: TK-10 renal
U251 CNS = system: U251 CNS
UACC-257 melanoma = system: UACC-257 melanoma
UACC-62 melanoma = system: UACC-62 melanoma
UO-31 renal = system: UO-31 renal
A549 NSCLC = system: A549 NSCLC
MALME-3M melanoma = system: MALME-3M melanoma
NCI-H522 lung = system: NCI-H522 lung
OVCAR-3 ovarian = system: OVCAR-3 ovarian
OVCAR-5 ovarian = system: OVCAR-5 ovarian
SN12C renal = system: SN12C renal

O=C(c1ccc2ccccc2c1O)N1CCCCC1
TGI (786-0 renal): > 100 µM
TGI (A498 renal): > 100 µM
TGI (ACHN renal): > 100 µM
TGI (CAKI-1 renal): > 100 µM
TGI (CCRF-CEM leukemia): > 100 µM
TGI (COLO 205 colon): > 100 µM
TGI (DU-145 prostate): > 100 µM
TGI (EKVX NSCLC): > 100 µM
TGI (HCC-2998 colon): > 100 µM
TGI (HCT-116 colon): > 100 µM
TGI (HCT-15 colon): > 100 µM
TGI (HL-60(TB) leukemia): > 100 µM
TGI (HOP-62 NSCLC): > 100 µM
TGI (HOP-92 NSCLC): > 100 µM
TGI (HS 578T breast): > 100 µM
TGI (HT29 colon): > 100 µM
TGI (IGROV1 ovarian): > 100 µM
TGI (K-562 leukemia): 75.3 µM
TGI (KM12 colon): > 100 µM
TGI (LOX IMVI melanoma): > 100 µM
TGI (M14 melanoma): > 100 µM
TGI (MCF7 breast): > 100 µM
TGI (MDA-MB-231 breast): > 100 µM
TGI (MDA-MB-435): > 100 µM
TGI (MOLT-4 leukemia): 59.3 µM
TGI (NCI-H226 lung): > 100 µM
TGI (NCI-H23 lung): 90 µM
TGI (NCI-H460 lung): > 100 µM
TGI (NCI/ADR-RES ovarian): > 100 µM
TGI (OVCAR-4 ovarian): > 100 µM
TGI (OVCAR-8 ovarian): > 100 µM
TGI (PC-3 prostate): > 100 µM
TGI (RPMI-8226 leukemia): 95.9 µM
TGI (RXF 393 renal): > 100 µM
TGI (SF-268 CNS): > 100 µM
TGI (SF-295 CNS): > 100 µM
TGI (SF-539 CNS): > 100 µM
TGI (SK-MEL-2 melanoma): > 100 µM
TGI (SK-MEL-28 melanoma): > 100 µM
TGI (SK-MEL-5 melanoma): > 100 µM
TGI (SK-OV-3 ovarian): > 100 µM
TGI (SNB-19 CNS): > 100 µM
TGI (SNB-75 CNS): > 100 µM
TGI (SW-620 colon): > 100 µM
TGI (T-47D breast): > 100 µM
TGI (TK-10 renal): > 100 µM
TGI (U251 CNS): > 100 µM
TGI (UACC-257 melanoma): > 100 µM
TGI (UACC-62 melanoma): > 100 µM
TGI (UO-31 renal): > 100 µM

C=C(CNC(=O)Nc1ccc(-c2ccccc2)cc1)c1ccc(C(=O)Nc2ccccc2N)cc1
GI50 (786-0 renal): > 100 µM
TGI (786-0 renal): > 100 µM
GI50 (A498 renal): 37.4 µM
TGI (A498 renal): > 100 µM
GI50 (A549 NSCLC): > 100 µM
TGI (A549 NSCLC): > 100 µM
GI50 (ACHN renal): > 100 µM
TGI (ACHN renal): > 100 µM
GI50 (CAKI-1 renal): > 100 µM
TGI (CAKI-1 renal): > 100 µM
GI50 (CCRF-CEM leukemia): 7.32 µM
TGI (CCRF-CEM leukemia): > 100 µM
GI50 (COLO 205 colon): > 100 µM
TGI (COLO 205 colon): > 100 µM
GI50 (DU-145 prostate): 27.7 µM
TGI (DU-145 prostate): > 100 µM
GI50 (EKVX NSCLC): > 100 µM
TGI (EKVX NSCLC): > 100 µM
GI50 (HCC-2998 colon): > 100 µM
TGI (HCC-2998 colon): > 100 µM
GI50 (HCT-116 colon): > 100 µM
TGI (HCT-116 colon): > 100 µM
GI50 (HCT-15 colon): 70.4 µM
TGI (HCT-15 colon): > 100 µM
GI50 (HL-60(TB) leukemia): 89.7 µM
TGI (HL-60(TB) leukemia): > 100 µM
GI50 (HOP-62 NSCLC): 49.1 µM
TGI (HOP-62 NSCLC): > 100 µM
GI50 (HS 578T breast): 81.7 µM
TGI (HS 578T breast): > 100 µM
GI50 (HT29 colon): > 100 µM
TGI (HT29 colon): > 100 µM
GI50 (K-562 leukemia): 40.6 µM
TGI (K-562 leukemia): > 100 µM
GI50 (KM12 colon): 10.8 µM
TGI (KM12 colon): > 100 µM
GI50 (LOX IMVI melanoma): > 100 µM
TGI (LOX IMVI melanoma): > 100 µM
GI50 (M14 melanoma): 90.9 µM
TGI (M14 melanoma): > 100 µM
GI50 (MALME-3M melanoma): 53.7 µM
TGI (MALME-3M melanoma): > 100 µM
GI50 (MCF7 breast): > 100 µM
TGI (MCF7 breast): > 100 µM
GI50 (MDA-MB-231 breast): 31.1 µM
TGI (MDA-MB-231 breast): > 100 µM
GI50 (MDA-MB-435): 89.8 µM
TGI (MDA-MB-435): > 100 µM
GI50 (MOLT-4 leukemia): 30.5 µM
TGI (MOLT-4 leukemia): > 100 µM
GI50 (NCI-H226 lung): > 100 µM
TGI (NCI-H226 lung): > 100 µM
GI50 (NCI-H23 lung): 85.3 µM
TGI (NCI-H23 lung): > 100 µM
GI50 (NCI-H460 lung): > 100 µM
TGI (NCI-H460 lung): > 100 µM
GI50 (NCI-H522 lung): 15 µM
TGI (NCI-H522 lung): 99 µM
GI50 (NCI/ADR-RES ovarian): 58.3 µM
TGI (NCI/ADR-RES ovarian): > 100 µM
GI50 (OVCAR-3 ovarian): > 100 µM
TGI (OVCAR-3 ovarian): > 100 µM
GI50 (OVCAR-4 ovarian): > 100 µM
TGI (OVCAR-4 ovarian): > 100 µM
GI50 (OVCAR-5 ovarian): > 100 µM
TGI (OVCAR-5 ovarian): > 100 µM
GI50 (OVCAR-8 ovarian): 58.9 µM
TGI (OVCAR-8 ovarian): > 100 µM
GI50 (PC-3 prostate): 51.5 µM
TGI (PC-3 prostate): > 100 µM
GI50 (RPMI-8226 leukemia): 20.4 µM
TGI (RPMI-8226 leukemia): > 100 µM
GI50 (RXF 393 renal): 23.7 µM
TGI (RXF 393 renal): 59 µM
GI50 (SF-268 CNS): > 100 µM
TGI (SF-268 CNS): > 100 µM
GI50 (SF-295 CNS): > 100 µM
TGI (SF-295 CNS): > 100 µM
GI50 (SF-539 CNS): > 100 µM
TGI (SF-539 CNS): > 100 µM
GI50 (SK-MEL-2 melanoma): > 100 µM
TGI (SK-MEL-2 melanoma): > 100 µM
GI50 (SK-MEL-28 melanoma): 48.3 µM
TGI (SK-MEL-28 melanoma): > 100 µM
GI50 (SK-MEL-5 melanoma): 94.3 µM
TGI (SK-MEL-5 melanoma): > 100 µM
GI50 (SK-OV-3 ovarian): 25.9 µM
TGI (SK-OV-3 ovarian): 74.8 µM
GI50 (SN12C renal): > 100 µM
TGI (SN12C renal): > 100 µM
GI50 (SNB-19 CNS): 98.7 µM
TGI (SNB-19 CNS): > 100 µM
GI50 (SNB-75 CNS): 30.6 µM
TGI (SNB-75 CNS): 96.2 µM
GI50 (SW-620 colon): > 100 µM
TGI (SW-620 colon): > 100 µM
GI50 (T-47D breast): > 100 µM
TGI (T-47D breast): > 100 µM
GI50 (TK-10 renal): > 100 µM
TGI (TK-10 renal): > 100 µM
GI50 (U251 CNS): 47.9 µM
TGI (U251 CNS): > 100 µM
GI50 (UACC-257 melanoma): > 100 µM
TGI (UACC-257 melanoma): > 100 µM
GI50 (UACC-62 melanoma): > 100 µM
TGI (UACC-62 melanoma): > 100 µM
GI50 (UO-31 renal): > 100 µM
TGI (UO-31 renal): > 100 µM

c1ccc(C2=NOC3(c4ccccc4)CC(c4cccs4)Sc4ccccc4N23)cc1 (centres undefined)
GI50 (HCT-116 colon): 28.2 µM
GI50 (HT29 colon): 65.5 µM
GI50 (K-562 leukemia): 23.6 µM
GI50 (MOLT-4 leukemia): 8.75 µM
GI50 (OVCAR-5 ovarian): 35.1 µM
GI50 (U251 CNS): 7.58 µM
GI50 (UO-31 renal): 89.1 µM

CNCc1cccc2c1OCCOCCN(C)C(=O)CN(C)S(=O)(=O)c1ccc(cc1)-c1cnc(N)c(n1)C(=O)N2
GI50 (786-0 renal): 0.669 µM
TGI (786-0 renal): 2.09 µM
GI50 (A498 renal): 1.82 µM
TGI (A498 renal): 7.34 µM
GI50 (CAKI-1 renal): 2.35 µM
TGI (CAKI-1 renal): > 100 µM
GI50 (HCT-15 colon): 6.97 µM
TGI (HCT-15 colon): > 100 µM
GI50 (HT29 colon): 2.85 µM
TGI (HT29 colon): > 100 µM
GI50 (MCF7 breast): 0.0853 µM
TGI (MCF7 breast): > 100 µM
GI50 (NCI-H23 lung): 0.299 µM
TGI (NCI-H23 lung): 3.47 µM
GI50 (NCI/ADR-RES ovarian): > 100 µM
TGI (NCI/ADR-RES ovarian): > 100 µM
GI50 (SF-295 CNS): 1.77 µM
TGI (SF-295 CNS): > 100 µM
GI50 (SK-MEL-5 melanoma): 6.63 µM
TGI (SK-MEL-5 melanoma): > 100 µM
GI50 (TK-10 renal): 2.71 µM
TGI (TK-10 renal): > 100 µM
GI50 (UO-31 renal): > 100 µM
TGI (UO-31 renal): > 100 µM
